Reference: PubChem BioAssay AID2060503 (Molecular Pharmacology Branch, DTP, NCI, 2025)

Tested on: 817829-284-R-J1-PDC complex spheroids, viability
Experiment: Anticancer human tumor 817829-284-R-J1-PDC patient-derived colon adenocarcinoma cell line growth inhibition [GQUAD]
Conditions: for IC50: curve of first compound; for viability, T/C: stronger effect = lower value
In short: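 Tumor cells were grown as complex spheroids with HUVEC endothelial cells and mesenchymal stem cells as stroma. G-quadruplex stabilizers were combined with targeted agents over half-log dilutions from near the clinical Cmax, or from 10 microM.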

[1] = second compound 0.0316 µM, first compound 0.0316 µM
[2] = second compound 0.0316 µM, first compound 0.316 µM
[3] = second compound 0.1 µM, first compound 0.0316 µM
[4] = second compound 0.1 µM, first compound 0.316 µM
[5] = second compound 0.316 µM, first compound 0.0316 µM
[6] = second compound 0.316 µM, first compound 0.316 µM
[7] = second compound 1 µM, first compound 0.0316 µM
[8] = second compound 1 µM, first compound 0.316 µM
[9] = second compound 3.16 µM, first compound 0.0316 µM
[10] = second compound 3.16 µM, first compound 0.316 µM
[11] = second compound 10 µM, first compound 0.0316 µM
[12] = second compound 10 µM, first compound 0.316 µM
[13] = second compound 0.0316 µM, first compound 0.1 µM
[14] = second compound 0.0316 µM, first compound 1 µM
[15] = second compound 0.0316 µM, first compound 3.16 µM
[16] = second compound 0.0316 µM, first compound 10 µM
[17] = second compound 0.1 µM, first compound 0.1 µM
[18] = second compound 0.1 µM, first compound 1 µM
[19] = second compound 0.1 µM, first compound 3.16 µM
[20] = second compound 0.1 µM, first compound 10 µM
[21] = second compound 0.316 µM, first compound 0.1 µM
[22] = second compound 0.316 µM, first compound 1 µM
[23] = second compound 0.316 µM, first compound 3.16 µM
[24] = second compound 0.316 µM, first compound 10 µM
[25] = second compound 1 µM, first compound 0.1 µM
[26] = second compound 1 µM, first compound 1 µM
[27] = second compound 1 µM, first compound 3.16 µM
[28] = second compound 1 µM, first compound 10 µM
[29] = second compound 3.16 µM, first compound 0.1 µM
[30] = second compound 3.16 µM, first compound 1 µM
[31] = second compound 3.16 µM, first compound 3.16 µM
[32] = second compound 3.16 µM, first compound 10 µM
[33] = second compound 10 µM, first compound 0.1 µM
[34] = second compound 10 µM, first compound 1 µM
[35] = second compound 10 µM, first compound 3.16 µM
[36] = second compound 10 µM, first compound 10 µM
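Further: spheroids exposed to agents for 7 days before readout.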
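Wherever viability, T/C is given: percent viability relative to DMSO vehicle control taken as 100%.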

In the case of `CCc1c2c(nc3ccc(O)cc13)-c1cc3c(c(=O)n1C2)COC(=O)[C@]3(O)CC` + Cc1[nH]c2ccc(F)cc2c1-c1nc2c3cccnc3c3ncccc3c2[nH]1, the IC50 (second compound 0.0316 µM) is reported as 1.74 nM, the IC50 (second compound 0.1 µM) is reported as 1.01 nM and the IC50 (second compound 0.316 µM) is reported as < 0.999 nM. For the same molecule, the IC50 (second compound 1 µM) was < 0.999 nM, the IC50 (second compound 3.16 µM) was < 0.999 nM and the IC50 (second compound 10 µM) was < 0.999 nM. The viability, T/C (second compound 0.0316 µM, first compound 0.000999 µM) was 65.2%, the viability, T/C (second compound 0.0316 µM, first compound 0.00316 µM) was 28.1% and the viability, T/C (second compound 0.0316 µM, first compound 0.00999 µM) was 30.3%. It also gave a viability, T/C [1] of 13.1%, a viability, T/C (second compound 0.0316 µM, first compound 0.0999 µM) of 8.01% and a viability, T/C [2] of 4.19%. For the same molecule, the viability, T/C (second compound 0.1 µM, first compound 0.000999 µM) was 51.3%, the viability, T/C (second compound 0.1 µM, first compound 0.00316 µM) was 33.6% and the viability, T/C (second compound 0.1 µM, first compound 0.00999 µM) was 27.8%. The viability, T/C [3] was 14.9%, the viability, T/C (second compound 0.1 µM, first compound 0.0999 µM) was 9.56% and the viability, T/C [4] was 4.38%. The viability, T/C (second compound 0.316 µM, first compound 0.000999 µM) was 43.5%, the viability, T/C (second compound 0.316 µM, first compound 0.00316 µM) was 35.6% and the viability, T/C (second compound 0.316 µM, first compound 0.00999 µM) was 23.6%. For the same molecule, the viability, T/C [5] was 16.7%, the viability, T/C (second compound 0.316 µM, first compound 0.0999 µM) was 8.62% and the viability, T/C [6] was 5.24%. It also gave a viability, T/C (second compound 1 µM, first compound 0.000999 µM) of 43%, a viability, T/C (second compound 1 µM, first compound 0.00316 µM) of 30.6% and a viability, T/C (second compound 1 µM, first compound 0.00999 µM) of 24.6%. The viability, T/C [7] was 15%, the viability, T/C (second compound 1 µM, first compound 0.0999 µM) was 8.8% and the viability, T/C [8] was 4.41%. For the same molecule, the viability, T/C (second compound 3.16 µM, first compound 0.000999 µM) was 30.3%, the viability, T/C (second compound 3.16 µM, first compound 0.00316 µM) was 16.4% and the viability, T/C (second compound 3.16 µM, first compound 0.00999 µM) was 13.8%. It also gave a viability, T/C [9] of 10.8%, a viability, T/C (second compound 3.16 µM, first compound 0.0999 µM) of 5.28% and a viability, T/C [10] of 2.61%. It also gave a viability, T/C (second compound 10 µM, first compound 0.000999 µM) of 6.96%, a viability, T/C (second compound 10 µM, first compound 0.00316 µM) of 7.65% and a viability, T/C (second compound 10 µM, first compound 0.00999 µM) of 4.74%. The viability, T/C [11] was 5.66%, the viability, T/C (second compound 10 µM, first compound 0.0999 µM) was 3.66% and the viability, T/C [12] was 1.35%.

In the case of `Cc1cccc(N(C)C(=O)C2C(O)CCN2c2nc(C)cc(C(F)(F)F)c2C#N)c1` (stereo not drawn) + CN(C)c1ccc(Nc2c3ccc(NC(=O)CCN4CCCC4)cc3nc3cc(NC(=O)CCN4CCCC4)ccc23)cc1, the IC50 (second compound 0.0316 µM) is reported as > 10000 nM, the IC50 (second compound 0.1 µM) is reported as > 10000 nM and the IC50 (second compound 0.316 µM) is reported as > 10000 nM. The IC50 (second compound 1 µM) was > 10000 nM, the IC50 (second compound 3.16 µM) was > 10000 nM and the IC50 (second compound 10 µM) was 4030 nM. The viability, T/C [1] was 101%, the viability, T/C [13] was 102% and the viability, T/C [2] was 92.5%. The viability, T/C [14] was 90%, the viability, T/C [15] was 92.8% and the viability, T/C [16] was 85.4%. For the same molecule, the viability, T/C [3] was 89.3%, the viability, T/C [17] was 109% and the viability, T/C [4] was 90.1%. For the same molecule, the viability, T/C [18] was 112%, the viability, T/C [19] was 93.3% and the viability, T/C [20] was 79.9%. It also gave a viability, T/C [5] of 99.3%, a viability, T/C [21] of 96.8% and a viability, T/C [6] of 90.6%. It also gave a viability, T/C [22] of 93.1%, a viability, T/C [23] of 99.4% and a viability, T/C [24] of 90.8%. It also gave a viability, T/C [7] of 95.5%, a viability, T/C [25] of 88.2% and a viability, T/C [8] of 90.5%. For the same molecule, the viability, T/C [26] was 83.7%, the viability, T/C [27] was 94% and the viability, T/C [28] was 81%. For the same molecule, the viability, T/C [9] was 99.6%, the viability, T/C [29] was 99.3% and the viability, T/C [10] was 94.3%. For the same molecule, the viability, T/C [30] was 91.8%, the viability, T/C [31] was 111% and the viability, T/C [32] was 82.1%. The viability, T/C [11] was 97.7%, the viability, T/C [33] was 88.7% and the viability, T/C [12] was 85.7%. It also gave a viability, T/C [34] of 69.4%, a viability, T/C [35] of 52.2% and a viability, T/C [36] of 40.2%.

With `Cc1cccc(N(C)C(=O)C2C(O)CCN2c2nc(C)cc(C(F)(F)F)c2C#N)c1` (stereo not drawn) + Cc1cnc(CNC(=O)c2c(=O)c3ccc(N4CCCN(C)CC4)nc3n3c2sc2ccccc23)cn1 the IC50 (second compound 0.0316 µM) was > 10000 nM, the IC50 (second compound 0.1 µM) was < 31.6 nM and the IC50 (second compound 0.316 µM) was < 31.6 nM. For the same molecule, the IC50 (second compound 1 µM) was < 31.6 nM, the IC50 (second compound 3.16 µM) was < 31.6 nM and the IC50 (second compound 10 µM) was < 31.6 nM. For the same molecule, the viability, T/C [1] was 85.6%, the viability, T/C [13] was 82.6% and the viability, T/C [2] was 81.8%. For the same molecule, the viability, T/C [14] was 53.1%, the viability, T/C [15] was 91.4% and the viability, T/C [16] was 75%. For the same molecule, the viability, T/C [3] was 38.5%, the viability, T/C [17] was 36.7% and the viability, T/C [4] was 29.3%. The viability, T/C [18] was 36.1%, the viability, T/C [19] was 39.3% and the viability, T/C [20] was 33.9%. The viability, T/C [5] was 27.7%, the viability, T/C [21] was 30.4% and the viability, T/C [6] was 26.6%. It also gave a viability, T/C [22] of 25.9%, a viability, T/C [23] of 28.6% and a viability, T/C [24] of 23%. It also gave a viability, T/C [7] of 19.2%, a viability, T/C [25] of 22.1% and a viability, T/C [8] of 22.1%. The viability, T/C [26] was 20.2%, the viability, T/C [27] was 22.9% and the viability, T/C [28] was 19.1%. The viability, T/C [9] was 20.1%, the viability, T/C [29] was 18.9% and the viability, T/C [10] was 20.4%. For the same molecule, the viability, T/C [30] was 18.8%, the viability, T/C [31] was 18% and the viability, T/C [32] was 17.2%. The viability, T/C [11] was 0.19%, the viability, T/C [33] was 0.22% and the viability, T/C [12] was 0.21%. The viability, T/C [34] was 0.21%, the viability, T/C [35] was 0.24% and the viability, T/C [36] was 0.21%.

In the case of `COc1ccc([C@@H](O)c2cc(-c3ncnc4cc(N5CCOCC5)ccc34)c(F)cc2Cl)nn1` + CN(C)c1ccc(Nc2c3ccc(NC(=O)CCN4CCCC4)cc3nc3cc(NC(=O)CCN4CCCC4)ccc23)cc1, the IC50 (second compound 0.0316 µM) is reported as > 10000 nM, the IC50 (second compound 0.1 µM) is reported as > 10000 nM and the IC50 (second compound 0.316 µM) is reported as > 10000 nM. The IC50 (second compound 1 µM) was 8580 nM, the IC50 (second compound 3.16 µM) was 2950 nM and the IC50 (second compound 10 µM) was 1140 nM. It also gave a viability, T/C [1] of 104%, a viability, T/C [13] of 98.7% and a viability, T/C [2] of 103%. The viability, T/C [14] was 85.5%, the viability, T/C [15] was 88% and the viability, T/C [16] was 58.1%. It also gave a viability, T/C [3] of 86.8%, a viability, T/C [17] of 100% and a viability, T/C [4] of 94.4%. The viability, T/C [18] was 94.7%, the viability, T/C [19] was 63.5% and the viability, T/C [20] was 54.7%. For the same molecule, the viability, T/C [5] was 92.2%, the viability, T/C [21] was 107% and the viability, T/C [6] was 115%. For the same molecule, the viability, T/C [22] was 95.5%, the viability, T/C [23] was 76% and the viability, T/C [24] was 56.3%. The viability, T/C [7] was 88.9%, the viability, T/C [25] was 106% and the viability, T/C [8] was 98%. The viability, T/C [26] was 86.5%, the viability, T/C [27] was 68.8% and the viability, T/C [28] was 47%. It also gave a viability, T/C [9] of 93.6%, a viability, T/C [29] of 96.3% and a viability, T/C [10] of 96.9%. For the same molecule, the viability, T/C [30] was 73.9%, the viability, T/C [31] was 50.1% and the viability, T/C [32] was 33.4%. For the same molecule, the viability, T/C [11] was 107%, the viability, T/C [33] was 85.9% and the viability, T/C [12] was 85.7%. It also gave a viability, T/C [34] of 47.5%, a viability, T/C [35] of 31.3% and a viability, T/C [36] of 13.5%.
